Source: US6693216B2, “Calcium double salts” (Nutrinova Nutrition Specialties & Food Ingredients GmbH, priority 2000, dated 2004)
Read-outs that look alike come from different tables or passages of the source.

Columns and labels:
[1] = test system: all microorganisms used
[2] = test system: Bacilli; details: Part II, 1 g/l in apple juice pH 4.5, 25° C.
[3] = test system: Yeasts; details: Part II, 1 g/l in apple juice pH 4.5, 25° C.
[4] = test system: Lactic acid bacteria; details: Part II, 1 g/l in apple juice pH 4.5, 25° C.
[5] = test system: Thermophilic bacilli; details: Part II, 1 g/l in apple juice pH 4.5, 25° C.
[6] = test system: Molds II; details: Part II, 1 g/l in apple juice pH 4.5, 25° C.
[7] = test system: Clostridia; details: Part II, 1 g/l in apple juice pH 4.5, 25° C.
[8] = sealed
From the text: Salts prepared as in example 1 were dried, stored under the specified conditions without the addition of other substances and checked at regular intervals visually for discoloration: […]

[9] = test system: Molds I; details: Part II, 1 g/l in apple juice pH 4.5, 25° C.
[10] = test system: Gram-negative bacteria; details: Part II, 1 g/l in apple juice pH 4.5, 25° C.
[11] = test system: Gram-positive bacteria; details: Part II, 1 g/l in apple juice pH 4.5, 25° C.
[12] = test system: Acetic acid bacteria; details: Part II, 1 g/l in apple juice pH 4.5, 25° C.
[13] = 1 day after inoculation (2.7 × 10^4)
[14] = 3 days after inoculation (2.7 × 10^4)
[15] = 7 days after inoculation (2.7 × 10^4)
[16] = 14 days after inoculation (2.7 × 10^4)

C/C=C/C=C/C(=O)[O-].O=C[O-].[Ca+2]
Preservative action against the microorganisms used ([1]; 1 g/l in apple juice pH 4.5, up to 14 days): acts well and persistently against all microorganisms used, except for acetic acid bacteria and bacilli
Preservative action compared with the single salts ([1]; same concentration, 1 g/l in apple juice pH 4.5): acts surprisingly better than calcium formate (in particular against lactic acid bacteria, yeasts and molds) or calcium sorbate (in particular against Gram-negative bacteria) used alone
Number of surviving microorganisms per g of contaminated sample, Bacilli ([2]; 1 day after inoculation (3.3 × 10^4)): 3.2 × 10^3 CFU/g
Number of surviving microorganisms per g of contaminated sample, Bacilli ([2]; 3 days after inoculation (3.3 × 10^4)): 1.8 × 10^3 CFU/g
Number of surviving microorganisms per g of contaminated sample, Bacilli ([2]; 7 days after inoculation (3.3 × 10^4)): 1.7 × 10^3 CFU/g
Number of surviving microorganisms per g of contaminated sample, Bacilli ([2]; 14 days after inoculation (3.3 × 10^4)): 1.8 × 10^3 CFU/g
Number of surviving microorganisms per g of contaminated sample, Yeasts ([3]; 1 day after inoculation (2.6 × 10^4)): 1.3 × 10^4 CFU/g
Number of surviving microorganisms per g of contaminated sample, Yeasts ([3]; 3 days after inoculation (2.6 × 10^4)): 4.3 × 10^3 CFU/g
Number of surviving microorganisms per g of contaminated sample, Yeasts ([3]; 7 days after inoculation (2.6 × 10^4)): <100 CFU/g
Number of surviving microorganisms per g of contaminated sample, Yeasts ([3]; 14 days after inoculation (2.6 × 10^4)): <10 CFU/g
Number of surviving microorganisms per g of contaminated sample, Lactic acid bacteria [4, 13]: 3.9 × 10^3 CFU/g
Number of surviving microorganisms per g of contaminated sample, Lactic acid bacteria [4, 14]: 1.5 × 10^3 CFU/g
Number of surviving microorganisms per g of contaminated sample, Lactic acid bacteria [4, 15]: <10 CFU/g
Number of surviving microorganisms per g of contaminated sample, Lactic acid bacteria [4, 16]: <10 CFU/g
Number of surviving microorganisms per g of contaminated sample, Thermophilic bacilli ([5]; 1 day after inoculation (1.3 × 10^4)): 2.0 × 10^3 CFU/g
Number of surviving microorganisms per g of contaminated sample, Thermophilic bacilli ([5]; 3 days after inoculation (1.3 × 10^4)): 3.0 × 10^2 CFU/g
Number of surviving microorganisms per g of contaminated sample, Thermophilic bacilli ([5]; 7 days after inoculation (1.3 × 10^4)): <10 CFU/g
Number of surviving microorganisms per g of contaminated sample, Thermophilic bacilli ([5]; 14 days after inoculation (1.3 × 10^4)): <10 CFU/g
Number of surviving microorganisms per g of contaminated sample, Molds II ([6]; 1 day after inoculation (2.5 × 10^4)): 3.9 × 10^3 CFU/g
Number of surviving microorganisms per g of contaminated sample, Molds II ([6]; 3 days after inoculation (2.5 × 10^4)): <100 CFU/g
Number of surviving microorganisms per g of contaminated sample, Molds II ([6]; 7 days after inoculation (2.5 × 10^4)): <10 CFU/g
Number of surviving microorganisms per g of contaminated sample, Molds II ([6]; 14 days after inoculation (2.5 × 10^4)): <10 CFU/g
Number of surviving microorganisms per g of contaminated sample, Clostridia ([7]; 1 day after inoculation (2.9 × 10^4)): 1.1 × 10^3 CFU/g
Number of surviving microorganisms per g of contaminated sample, Clostridia ([7]; 3 days after inoculation (2.9 × 10^4)): <100 CFU/g
Number of surviving microorganisms per g of contaminated sample, Clostridia ([7]; 7 days after inoculation (2.9 × 10^4)): 100 CFU/g
Number of surviving microorganisms per g of contaminated sample, Clostridia ([7]; 14 days after inoculation (2.9 × 10^4)): <10 CFU/g
Time after yellow-brown discoloration of a 1% strength aqueous solution ([8]; dark at 7° C.): 12 months/>12 months
Time after yellow-brown discoloration of the powder ([8]; dark at 7° C.): >12 months />12 months
Time after yellow-brown discoloration of a 1% strength aqueous solution ([8]; dark at 25° C.): 12 months/>12 months
Time after yellow-brown discoloration of the powder ([8]; dark at 25° C.): >12 months />12 months
Time after yellow-brown discoloration of a 1% strength aqueous solution ([8]; under sunlight at 7° C.): 12 months/>12 months
Time after yellow-brown discoloration of the powder ([8]; under sunlight at 7° C.): 12 months/>12 months
Time after yellow-brown discoloration of a 1% strength aqueous solution ([8]; under sunlight at 25° C.): 12 months/>12 months
Time after yellow-brown discoloration of the powder ([8]; under sunlight at 25° C.): 12 months/>12 months
Number of surviving microorganisms per g of contaminated sample, Molds I ([9]; 1 day after inoculation (2.2 × 10^4)): 3.8 × 10^3 CFU/g
Number of surviving microorganisms per g of contaminated sample, Molds I ([9]; 3 days after inoculation (2.2 × 10^4)): 2.0 × 10^2 CFU/g
Number of surviving microorganisms per g of contaminated sample, Molds I ([9]; 7 days after inoculation (2.2 × 10^4)): 25 CFU/g
Number of surviving microorganisms per g of contaminated sample, Molds I ([9]; 14 days after inoculation (2.2 × 10^4)): 10 CFU/g
Number of surviving microorganisms per g of contaminated sample, Gram-negative bacteria [10, 13]: 1.7 × 10^4 CFU/g
Number of surviving microorganisms per g of contaminated sample, Gram-negative bacteria [10, 14]: 2.5 × 10^3 CFU/g
Number of surviving microorganisms per g of contaminated sample, Gram-negative bacteria [10, 15]: 2.0 × 10^3 CFU/g
Number of surviving microorganisms per g of contaminated sample, Gram-negative bacteria [10, 16]: <10 CFU/g
Number of surviving microorganisms per g of contaminated sample, Gram-positive bacteria ([11]; 1 day after inoculation (2.1 × 10^4)): 2.1 × 10^4 CFU/g
Number of surviving microorganisms per g of contaminated sample, Gram-positive bacteria ([11]; 3 days after inoculation (2.1 × 10^4)): 8.5 × 10^3 CFU/g
Number of surviving microorganisms per g of contaminated sample, Gram-positive bacteria ([11]; 7 days after inoculation (2.1 × 10^4)): 6.8 × 10^2 CFU/g
Number of surviving microorganisms per g of contaminated sample, Gram-positive bacteria ([11]; 14 days after inoculation (2.1 × 10^4)): <10 CFU/g
Number of surviving microorganisms per g of contaminated sample, Acetic acid bacteria ([12]; 1 day after inoculation (2.8 × 10^4)): 2.1 × 10^4 CFU/g
Number of surviving microorganisms per g of contaminated sample, Acetic acid bacteria ([12]; 3 days after inoculation (2.8 × 10^4)): 1.6 × 10^4 CFU/g
Number of surviving microorganisms per g of contaminated sample, Acetic acid bacteria ([12]; 7 days after inoculation (2.8 × 10^4)): 7.6 × 10^3 CFU/g
Number of surviving microorganisms per g of contaminated sample, Acetic acid bacteria ([12]; 14 days after inoculation (2.8 × 10^4)): 2.6 × 10^4 CFU/g
